From patent US5843916A, “Cyclic amp analogues, individually and in pairs, to inhibit neoplastic cell growth” (priority 1994, dated 1998)
Like-named read-outs stand apart in the source and are kept apart here.

Columns and labels:
[1] = tested on: breast (MCF-7) and colon (LS-174T) cancer cell lines; test: Growth inhibition of breast and colon cancer cells (Table 1); type: cell-based, human; conditions: for inhibition at 50 µM: Homo sapiens, average (range)
Experimental: The compounds of the present invention were added using 100X concentrated stock solutions. At desired times, cell counts in duplicate were performed on a Coulter counter after harvesting the cells with gentle trypsinization. […] Cell counts were performed on each of three or more separate experiments, and the average values are expressed as percent growth inhibition as compared with untreated control cells. | ^a The values of percentage growth inhibition were determined from th | doseresponse curve experiments. Each value represents an average value an | range (in parentheses) obtained from three or more separate experiments. | The cell counts in duplicate were performed at day 3 and day 4 after two | treatments (day 0 and day 2) with analogs (seeding on day -1).

[2] = tested on: LS-174T human colon carcinoma cells; test: Additive growth inhibition with 8-Cl-cAMP (Table 19); type: cell-based
Experimental: The medium was changed every 48 hours.
At desired times, cell counts were performed in duplicate on a Coulter Counter after harvesting cells with gentle trypsinization.
The analogues were added at 24

[3] = tested on: LS-174T human colon carcinoma cells; test: Growth inhibition of LS-174T cells (Example 4, Table 18); type: cell-based; conditions: for inhibition at 10 µM / inhibition at 50 µM: Homo sapiens, LS174T; for growth inhibitory potency: LS-174T
Experimental: LS-174T human colon carcinoma cells were obtained from the National Cancer Institute, Division of Cancer Treatment, Bethesda, Md., and were grown in Eagle's minimum essential medium supplemented with 10% heat-inactivated fetal bovine serum, Eagle's minimum essential medium nonessential amino acids, 20 mM 4-(2-hydroxyethyl)-1-piperazineethanesulfonic acid, 2mM glutamine, and penicillin-streptomycin (Gibco). The medium was changed every 48 hours.
LS-174T cells were seeded at a density of 2×10^5 / 60 mm dish. […] At desired times, cell counts were performed in duplicate on a Coulter Counter after harvesting cells with gentle trypsinization.
The percentage growth inhibition values shown at 10
and 50 μM analogue concentrations were determined from
the dose-response curve experiments like those shown in
FIG. 1 and represent an average value obtained for each
analogue from two or more separate experiments. Sp-6-SET-

[4] = tested on: HL-60 human leukemia cells; test: Growth inhibition of HL-60 leukemia cells (Example 3, Table 16); type: cell-based; conditions: for inhibition at 20 µM / IC50: Homo sapiens; for inhibition at 20 µM: HL-60, read-out: growth inhibition
Experimental: HL-60 leukemic cells were obtained from the American Type Culture Collection (Rockville, Md.) and were grown in suspension culture in RPMI 1640 supplemented with 10% heat-inactivated fetal bovine serum, streptomycin (500 μg/ml), penicillin (50 units/ml), and glutamine (1 mM) (Gibco, Grand Island, N.Y.).
Cell counts were performed at desired times on a Coulter Counter.
The IC50 values were determined from the dose-
represent an average value obtained for each analogue
from two or more separate experiments carried out from 3
days or 6 days. Initial cell number, 1 × 10^5 /dish.
Typical numbers of untreated control cells at day 3 and
viability in treated and control cells.

[5] = biological target: T1, RI, regulatory subunit of cAMP-dependent protein kinase type I (Oryctolagus cuniculus, UniProt G1TDN4); conditions: literature, cited from earlier work
T1 construct: from tissue
T1 sequence (G1TDN4 1-381): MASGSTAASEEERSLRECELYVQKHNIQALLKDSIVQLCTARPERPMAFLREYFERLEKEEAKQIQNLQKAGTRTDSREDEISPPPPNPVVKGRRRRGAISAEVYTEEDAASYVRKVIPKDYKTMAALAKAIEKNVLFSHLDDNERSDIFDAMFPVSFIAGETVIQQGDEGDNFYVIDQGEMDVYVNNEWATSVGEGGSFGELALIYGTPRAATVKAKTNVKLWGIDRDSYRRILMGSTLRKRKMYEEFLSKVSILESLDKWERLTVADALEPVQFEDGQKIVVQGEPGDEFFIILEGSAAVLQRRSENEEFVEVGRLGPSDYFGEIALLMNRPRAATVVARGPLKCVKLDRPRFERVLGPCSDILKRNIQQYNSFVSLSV

[6] = biological target: T2, RII, regulatory subunit of cAMP-dependent protein kinase type II (Bos taurus, UniProt P00515); test: Binding affinity for RII (Table 14); conditions: vs cyclophosphate
T2 construct: from tissue
T2 sequence (P00515 whole entry): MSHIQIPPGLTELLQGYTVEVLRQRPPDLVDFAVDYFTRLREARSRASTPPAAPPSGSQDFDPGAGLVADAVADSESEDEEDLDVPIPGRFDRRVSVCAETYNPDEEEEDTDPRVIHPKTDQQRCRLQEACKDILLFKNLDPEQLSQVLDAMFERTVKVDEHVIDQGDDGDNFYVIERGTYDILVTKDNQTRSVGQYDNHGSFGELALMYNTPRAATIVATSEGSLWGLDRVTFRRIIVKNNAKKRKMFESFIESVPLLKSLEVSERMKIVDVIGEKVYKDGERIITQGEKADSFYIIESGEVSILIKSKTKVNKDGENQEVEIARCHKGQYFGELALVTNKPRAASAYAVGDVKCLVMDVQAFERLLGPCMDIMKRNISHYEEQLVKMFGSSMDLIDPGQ
Experimental: (§1) RI and RII are the regulatory subunits of cAMP-dependent protein
(§2) kinase type I and type II, respectively. Site A (Site 2) and Site B
(§3) (RI and RII): the affinities of analogues for Site A and Site B were
(§4) determined by the measurement of kinetic constants (inhibition constant,
(§5) Ki), and the values are expressed as the relative affinity Ki
(§6) (analogue), i.e., the ratio between the apparent inhibition constant for
(§7) cAMP and the analogue, as described in Ogreid et al., Eur. J. Biochem.

[7] = biological target: T2, RII, regulatory subunit of cAMP-dependent protein kinase type II; conditions: literature, cited from earlier work
[8] = biological target: T1, RI, regulatory subunit of cAMP-dependent protein kinase type I; test: Binding affinity for RI (Table 14); conditions: vs cyclophosphate
Experimental: as §1, §2, §3, §4, §5, §6, §7

[9] = tested on: breast and colon cancer lines (MCF-7, T-47D, ZR-75-1, MCF-7ras, MDA-MB-231, BT-20, HBL-100, LS-174T, WiDr, HT-29); test: Growth inhibition of breast and colon cancer lines (FIG. 1); type: cell-based, human; conditions: 0.1 mM, alone
[10] = tested on: four leukemic cell lines (HL-60, K-562, myc-K562, Molt-4); test: Growth inhibition of leukemic cell lines; type: cell-based, human; conditions: 0.1 mM, alone
[11] = 72 h, day 3, read-out: % Growth Inhibition, Day 3
[12] = 96 h, day 4, read-out: % Growth Inhibition, Day 4

O=P1(O)OC[C@H]2O[C@@H](n3c(SCc4ccccc4)nc4c(NCc5ccccc5)ncnc43)[C@H](O)[C@@H]2O1 [N^6-benzyl-8-benzylthio-cAMP]
inhibition at 50 µM [1, 11]: 25% | inhibition at 50 µM [1, 12]: 23%

CCCCNc1ncnc2c1nc(Sc1ccc(Cl)cc1)n2[C@@H]1O[C@@H]2COP(=O)(O)O[C@H]2[C@H]1O [N^6-n-butyl-8-p-chlorophenylthio-cAMP]
inhibition at 50 µM [1, 11]: 15% | inhibition at 50 µM [1, 12]: 22%

O=P1(O)OC[C@H]2O[C@@H](n3c(Sc4ccc(Cl)cc4)nc4c(Nc5ccccc5)ncnc43)[C@H](O)[C@@H]2O1 [N^6-phenyl-8-p-chlorophenylthio-cAMP]
growth inhibition ([1]; 50 micromolar): most potent growth inhibition among the C-6,-8 disubstituted analogues | inhibition at 50 µM [1, 11]: 60% | inhibition at 50 µM [1, 12]: 47%

Nc1ncnc2c1ncn2[C@@H]1O[C@@H]2CO[P@@](O)(=S)O[C@H]2[C@H]1O [Rp-cAMPS]
inhibition at 50 µM ([2]; Homo sapiens, LS174T, 96 h, 50 μM, 4 days): 35% | effect on growth-inhibitory effect of 8-Cl-cAMP ([2]; with 8-Cl-cAMP): additive effect | inhibition at 10 µM [3]: 15% | inhibition at 50 µM [3]: 35% | growth inhibitory potency [3]: moderate potency | inhibition at 20 µM [4]: < 5%

Nc1nc(Cl)nc2c1ncn2[C@@H]1O[C@@H]2CO[P@](O)(=S)O[C@H]2[C@H]1O [Sp-2-Cl-cAMPS, Sp-2-Chloroadenosine-3':5'-monophosphorothioate]
inhibition at 10 µM [3]: 10% | inhibition at 50 µM [3]: 25% | growth inhibitory potency [3]: least potency

CCSc1ncnc2c1ncn2[C@@H]1O[C@@H]2CO[P@](O)(=S)O[C@H]2[C@H]1O [Sp-6-SET-cPMPS, Sp-6-ethylthiopurine-3':5'-monophosphorothioate]
inhibition at 10 µM [3]: 25% | inhibition at 50 µM [3]: 50% | growth inhibitory potency [3]: moderate potency

Nc1ncnc2c1nc(Br)n2[C@@H]1O[C@@H]2CO[P@](O)(=S)O[C@H]2[C@H]1O [Sp-8-Br-cAMPS]
relative affinity Ki (cAMP)/Ki (analogue), RI Site A ([5]; Site A (Site 2)): 0.19 | relative affinity Ki (cAMP)/Ki (analogue), RI Site B ([5]; Site B (Site 1)): 0.054 | decrease in affinity for Site A of RII vs corresponding cyclophosphate [6]: 37 fold | decrease in affinity for Site B of RII vs corresponding cyclophosphate [6]: 3.1 fold | relative affinity Ki (cAMP)/Ki (analogue), RII Site A ([7]; Site A (Site 2)): 0.003 | relative affinity Ki (cAMP)/Ki (analogue), RII Site B ([7]; Site B (Site 1)): 2.2 | inhibition at 10 µM [3]: 40% | inhibition at 50 µM [3]: 60% | growth inhibitory potency [3]: greatest inhibition of cell growth | decrease in affinity for Site A of RI vs corresponding cyclophosphate [8]: 7 fold | decrease in affinity for Site B of RI vs corresponding cyclophosphate [8]: 19 fold | IC50 ([4]; HL-60, 72 h, read-out: Growth inhibition (IC50), Day 3): 28 µM | IC50 ([4]; HL-60, 144 h, read-out: Growth inhibition (IC50), Day 6): 3 µM | inhibition at 20 µM [4]: 47% | fold more potent than 8-Br-cAMP ([4]; IC50, day 6): 6 fold

Nc1ncnc2c1ncn2[C@@H]1O[C@@H]2CO[P@](O)(=S)O[C@H]2[C@H]1O [Sp-cAMPS]
inhibition at 10 µM [3]: 7% | inhibition at 50 µM [3]: 15% | growth inhibitory potency [3]: least potency | inhibition at 20 µM [4]: < 5%

Cn1c(=O)c2[nH]cnc2n(C)c1=O [theophylline, reference compound]
growth inhibitory effect [9]: little or no growth inhibitory effect | growth inhibitory effect [10]: little or no growth inhibitory effect
